Like-named read-outs stand apart in the source and are kept apart here.
Assays:
[1] = molecular target: T1, full length R232.hSTING (ER fraction of transfected HEK293T cells) (Homo sapiens, UniProt Q86WV6, H232R); assay: In vitro kinase assay, ER fraction with full length R232 STING plus recombinant TBK1; type: biochemical; settings: cell free, immunoblot
T1 construct: ER fraction (8mg/ml) containing full length STING from R232.hSTING; host or cells: ER fraction of R232.hSTING HEK293T cells
Experimental: This was followed by homogenization 3 times with a 30 sec each pulse and 1 min cooling between each pulse. Homogenates were centrifuged at 5000g for 10 min at 4 °C to remove nuclei, mitochondria and cell membrane from the cytosolic fraction. Supernatant was further centrifuged at 100000g for 1 h at 4 °C to fractionate the ER containing cytosolic fraction. The pellet thus obtained was resuspended in homogenization buffer and washed by centrifugation at 100000g twice. Post washing, the ER fraction containing pellet was resuspended in ER buffer (final composition: 20 mM Tris-HCl, 100 mM NaCl, 5 mM MgCl2, 5 mM MnCl2, 20 mM beta Glycerophosphate, 0.2 mM Na3VO4, 1X protease inhibitor cocktail (Roche), pH 7.5) using a syringe fitted with a 26G needle passing through it several times till homogeneity. The protein content of the ER homogenate was estimated by the BCA method and aliquots were stored at -80 °C for further use. […]

[2] = molecular target: T2, HAQ STING (THP-1 cells) (Homo sapiens, UniProt Q86WV6, G230A/R293Q/R71H); assay: Western blot of pSTING and pIRF3 in THP-1 cells; type: cell-based; settings: immunoblot, 2 hours
T2 construct: THP1 cells constitutively express the HAQ variant of human STING; host or cells: THP-1
Experimental: (§1) 5 x 10^5 cells were seeded in 24-well plates in 500 μl growth medium and stimulated with novel compounds at 10μM. After 2 hours of treatment cells were harvested by centrifugation and cell pellets were lysed in RIPA buffer (20mM Tris-Cl, 150mM NaCl, 0.5mM EDTA, 1% NP40, 0.05% SDS) containing 1x phosphatase inhibitor cocktail 3 (Sigma) and 1x protease inhibitor (Roche) to extract the soluble fraction of protein. 10 μg of extracted protein was electrophoresed in 10% SDS-PAGE gels and transferred onto Immobilon-P membranes (Millipore).

[3] = tested on: human PBMCs and umbilical endothelial cells; design: method as in PMID 26646986; settings: cited from earlier work
[4] = molecular target: T3, mSTING (CT26 cells overexpressing mSTING) (Mus musculus, UniProt Q3TBT3); assay: Western blot of pSTING and pIRF3 in CT26 cells overexpressing mSTING; type: cell-based; settings: immunoblot, 2 hours
T3 construct: expressed in transfected cells; host or cells: CT26
Experimental: as §1, with “(Millipore). […] Anti-rabbit HRP label secondary antibody (Abcam) and Clarity Max™ western ECL substrate (Biorad—cat# 1705062) were used for visualization of bands using a BioRad XRS plus imager.” for “(Millipore).”

[5] = tested on: THP1 cells; design: method as in PMID 26646986; settings: cited from earlier work
[6] = tested on: immortalized human fibroblasts; design: method as in PMID 26646986; settings: cited from earlier work
[7] = molecular target: T4, R232 variant of human STING (Homo sapiens, UniProt Q86WV6, H232R); assay: Luciferase (ISRE.ISG reporter) assay in HEK293T cells stably expressing R232 hSTING; type: cell-based
T4 construct: the ER fraction from R232.STING transfected HEK293T cells which contained full length STING
Description: • a) Stable STING expressing cells. Stable HEK293T STING-expressing cell lines were generated using plasmids purchased from Invivogen, CA, USA, that contain STING cDNA cloned into the pUNO-1 vector under the hEF1-HTLV promoter as well as the Blasticidin selection cassette. The human STING plasmids corresponding to the R232, H232 and HAQ variants were directly procured from Invivogen while the AQ and Q variants were created by mismatch PCR using cDNA from HAQ.STING and R232.STING variants respectively. These vectors were individually transfected into HEK293T cells using Lipofectamine (Invitrogen) and transfected cells were expanded under Blasticidin selection. These cells were further subjected to clonal selection using the limiting dilution method to obtain clonally pure populations of HEK293T cells expressing each of the five human STING variants. Clones with minimal ligand independent activation of STING were chosen for cellular experiments. • b) N-His R232.hSTING HEK293T cells. HEK293T cells stably expressing N-His R232.hSTING were generated by the following described method. N-His R232.hSTING.pcDNA Myc B plasmid was transfected into HEK293T cells using Lipofectamine reagent (Invitrogen) and the transfected cells were selected under Hygromycin. Stably STING expressing HEK293T cells thus selected were further subjected to single cell clonal selection using the limiting dilution method to obtain a clonally pure population of HEK293T cells expressing the human R232 STING variant.
[…] clonally selected HEK293T-hSTING-Luciferase cells or control HEK293T-Luciferase cells were seeded in 384-well plates in growth medium and stimulated with known STING agonists or novel compounds. […]

[8] = molecular target: TBK1 (Homo sapiens, UniProt Q9UHD2); assay: TBK1 kinase assay in the presence of G10; type: biochemical; settings: S1 Table
Chain of TBK1 (Q9UHD2 whole entry): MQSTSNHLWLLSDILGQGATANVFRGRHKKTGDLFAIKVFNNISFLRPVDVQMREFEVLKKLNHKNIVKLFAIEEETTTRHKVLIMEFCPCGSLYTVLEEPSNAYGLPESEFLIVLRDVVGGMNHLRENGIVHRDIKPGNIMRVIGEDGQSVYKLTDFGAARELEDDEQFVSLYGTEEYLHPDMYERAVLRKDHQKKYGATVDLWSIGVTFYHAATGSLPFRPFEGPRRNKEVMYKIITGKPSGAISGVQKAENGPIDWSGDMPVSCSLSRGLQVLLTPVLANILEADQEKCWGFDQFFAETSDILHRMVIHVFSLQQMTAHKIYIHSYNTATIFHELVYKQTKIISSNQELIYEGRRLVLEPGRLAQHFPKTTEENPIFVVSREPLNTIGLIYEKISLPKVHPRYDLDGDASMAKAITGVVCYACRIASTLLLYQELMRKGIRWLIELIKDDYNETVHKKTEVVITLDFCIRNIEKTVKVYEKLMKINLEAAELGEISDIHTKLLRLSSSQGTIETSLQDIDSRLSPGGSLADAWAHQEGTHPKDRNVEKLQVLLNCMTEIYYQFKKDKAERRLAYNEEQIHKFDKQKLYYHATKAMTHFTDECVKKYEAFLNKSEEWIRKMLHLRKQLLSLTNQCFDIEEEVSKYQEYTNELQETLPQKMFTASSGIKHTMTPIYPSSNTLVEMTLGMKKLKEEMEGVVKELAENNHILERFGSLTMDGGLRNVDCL

T4 sequence (Q86WV6 whole entry H232R): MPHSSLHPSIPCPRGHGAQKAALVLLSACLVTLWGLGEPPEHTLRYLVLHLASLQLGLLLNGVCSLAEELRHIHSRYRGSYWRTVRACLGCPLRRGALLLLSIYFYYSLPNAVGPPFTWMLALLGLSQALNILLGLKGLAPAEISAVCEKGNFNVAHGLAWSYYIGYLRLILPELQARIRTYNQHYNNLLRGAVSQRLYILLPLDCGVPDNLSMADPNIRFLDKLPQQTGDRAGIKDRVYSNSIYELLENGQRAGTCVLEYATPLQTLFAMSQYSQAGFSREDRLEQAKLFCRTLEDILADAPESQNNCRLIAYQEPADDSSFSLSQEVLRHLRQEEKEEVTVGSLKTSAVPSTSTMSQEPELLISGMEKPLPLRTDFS
T1 sequence (Q86WV6 whole entry H232R): as above
T3 sequence (Q3TBT3 whole entry): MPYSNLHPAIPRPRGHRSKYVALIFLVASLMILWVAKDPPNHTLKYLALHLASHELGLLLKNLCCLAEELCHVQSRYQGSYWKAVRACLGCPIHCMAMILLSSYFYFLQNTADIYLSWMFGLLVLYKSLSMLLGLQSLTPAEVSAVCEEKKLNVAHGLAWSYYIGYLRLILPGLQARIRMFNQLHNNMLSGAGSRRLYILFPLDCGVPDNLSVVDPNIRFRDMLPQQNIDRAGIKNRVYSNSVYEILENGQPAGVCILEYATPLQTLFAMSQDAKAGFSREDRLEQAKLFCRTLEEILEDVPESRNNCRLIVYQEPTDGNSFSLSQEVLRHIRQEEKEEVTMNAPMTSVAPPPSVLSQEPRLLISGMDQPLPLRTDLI
T2 sequence (Q86WV6 whole entry R71H/G230A/R293Q): as the sequence (Q86WV6 whole entry H232R) above, with R71H, G230A, R232H, R293Q counted along it

## O=C(NCc1ccco1)c1ccc2c(c1)N(Cc1c(F)cccc1Cl)C(=O)CS2 [Compound G10, 4-(2-Chloro-6-fluorobenzyl)-N-(furan-2-ylmethyl)-3-oxo-3,4-dihydro-2H-benzo[b][1,4]thiazine-6-carboxamide]
[1]
  formation of pSTING by TBK1, ER fraction with full length R232 STING: activated
[2]
  phosphorylation of STING and IRF3 (pSTING, pIRF3) in THP1 cells: unable to detect either pSTING or pIRF3
[3]
  induction of pro-inflammatory genes incl. NFκB pathway: induced several pro-inflammatory genes
[4]
  phosphorylation of mSTING or mIRF3, CT26 cells overexpressing mSTING: did not lead to phosphorylation
[5]
  activation of IRF3 or NFκB linked reporters in THP1: unable to activate
[6]; STING knockout fibroblasts
  activity in STING knockout fibroblasts: inactive
[6]
  activation of the NFκB pathway in immortalized human fibroblasts: did not activate
[7]; HEK293T cells expressing R232 hSTING, luciferase reporter, read-out: HEK.R232 EC50
  EC50: 2490 nM
[7]; ISRE.ISG54 luciferase reporter, HEK293T, 18 hours, read-out: estimated EC50, R232 variant
  EC50: 2500 nM
[8]
  effect on TBK-1 enzyme: does not inhibit or activate
